# From paper PMC11882969 (Nature Communications, 2025)
# Values joined by “and” are separate entries in the source; they are usually repeats but may differ in a detail not shown here. Identical values can stand only once. Like-named read-outs stand apart in the source and are kept apart here.
# Key:
# hCB1 = hCB1 (Homo sapiens, UniProt P21554); assay: bioSensAll ebBRET signaling profiling, hCB1; type: cell-based; parameters: host or cells: HEK293SL cells, transient PEI transfection; settings: for Gi1 hCB1 / GoB hCB1: single replicate values, FigS6a; for EC50: read-out: EC50 [95% CI]; for Emax: normalized to CP-55,940
# Sequence of hCB1 (P21554 whole entry): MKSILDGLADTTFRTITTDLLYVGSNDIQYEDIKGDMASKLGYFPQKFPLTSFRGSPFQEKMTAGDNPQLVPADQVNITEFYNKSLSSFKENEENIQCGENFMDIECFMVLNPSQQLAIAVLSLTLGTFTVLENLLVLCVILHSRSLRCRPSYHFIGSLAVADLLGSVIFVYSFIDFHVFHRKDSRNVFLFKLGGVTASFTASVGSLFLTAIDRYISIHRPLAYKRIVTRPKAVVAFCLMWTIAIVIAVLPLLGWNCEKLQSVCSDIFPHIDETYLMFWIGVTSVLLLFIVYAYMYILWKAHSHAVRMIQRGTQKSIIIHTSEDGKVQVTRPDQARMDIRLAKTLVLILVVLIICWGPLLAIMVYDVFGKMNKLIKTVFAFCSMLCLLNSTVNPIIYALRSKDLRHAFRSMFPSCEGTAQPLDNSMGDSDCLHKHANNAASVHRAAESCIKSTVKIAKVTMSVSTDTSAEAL
# CB1 (rCB1) = CB1 (rCB1) (Rattus norvegicus, UniProt P20272); assay: Single-point radioligand displacement screen; type: binding; settings: 10 µM, 1 µM or 300 nM by cell colour (not visible)
# Sequence of CB1 (rCB1) (P20272 whole entry): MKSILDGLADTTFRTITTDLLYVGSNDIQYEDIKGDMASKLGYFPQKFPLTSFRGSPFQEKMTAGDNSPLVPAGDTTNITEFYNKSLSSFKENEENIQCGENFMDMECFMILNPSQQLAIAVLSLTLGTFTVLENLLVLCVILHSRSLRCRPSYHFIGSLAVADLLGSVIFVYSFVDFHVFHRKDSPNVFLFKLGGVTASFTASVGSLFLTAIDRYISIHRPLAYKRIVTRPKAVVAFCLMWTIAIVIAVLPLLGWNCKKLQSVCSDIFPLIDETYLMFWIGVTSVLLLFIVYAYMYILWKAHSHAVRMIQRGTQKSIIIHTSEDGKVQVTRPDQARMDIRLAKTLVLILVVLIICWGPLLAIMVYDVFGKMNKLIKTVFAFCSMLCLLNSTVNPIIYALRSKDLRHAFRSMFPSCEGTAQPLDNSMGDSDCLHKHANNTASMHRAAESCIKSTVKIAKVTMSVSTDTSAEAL
# hCB2 = hCB2 (Homo sapiens, UniProt P34972); assay: TRUPATH BRET2 GoA dissociation, HEK293T; type: cell-based; parameters: expressed in transfected cells; host or cells: HEK293T cells (ATCC: CRL-3216), transient co-transfection; settings: for functional response, concentration-response point (FigS7e, normalized): Log[drug], replicate columns
# Sequence of hCB2 (P34972 whole entry): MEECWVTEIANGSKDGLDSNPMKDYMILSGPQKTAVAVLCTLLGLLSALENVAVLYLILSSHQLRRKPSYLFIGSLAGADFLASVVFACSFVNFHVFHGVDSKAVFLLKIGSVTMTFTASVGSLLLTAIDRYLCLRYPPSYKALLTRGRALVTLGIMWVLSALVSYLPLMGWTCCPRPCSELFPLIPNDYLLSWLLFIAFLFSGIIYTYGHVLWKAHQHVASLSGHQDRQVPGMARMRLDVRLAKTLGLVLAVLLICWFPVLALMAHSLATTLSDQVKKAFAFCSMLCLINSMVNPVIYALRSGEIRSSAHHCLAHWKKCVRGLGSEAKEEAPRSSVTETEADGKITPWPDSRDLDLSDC
smiles,measurement,setting,value
COC(=O)C(NC(=O)c1cc(C)n(-c2cccc(C(F)(F)F)c2)n1)c1cccs1 (stereo not shown) [‘60154],Gi1 hCB1,hCB1; Log [Compound] (M) -11.0177,1.677
same,GoB hCB1,hCB1; Log [Compound] (M) -11.0177,-1.018
same,Gi1 hCB1,hCB1; Log [Compound] (M) -11.4949,1.6461
same,GoB hCB1,hCB1; Log [Compound] (M) -11.4949,-1.935
same,Gi1 hCB1,hCB1; Log [Compound] (M) -11.9208,-0.003475
same,GoB hCB1,hCB1; Log [Compound] (M) -11.9208,-0.2982
same,Gi1 hCB1,hCB1; Log [Compound] (M) -12.3979,0.3049
same,GoB hCB1,hCB1; Log [Compound] (M) -12.3979,0.619
same,Gi1 hCB1,hCB1; Log [Compound] (M) -12.8861,1.261
same,GoB hCB1,hCB1; Log [Compound] (M) -12.8861,-2.69
same,Gi1 hCB1,hCB1; Log [Compound] (M) -13,0.459 and 0.9986
same,GoB hCB1,hCB1; Log [Compound] (M) -13,-0.2622 and -1.953
same,pEC50 [95% CI],hCB1; hCB1 Gi1,7.6 [7.5 – 7.7]
same,pEC50 [95% CI],hCB1; hCB1 GoB,7.7 [7.7 – 7.8]
same,pEC50 [95% CI],hCB1; hCB1 Gz,7.8 [7.4 – 8.1]
same,EC50,hCB1; hCB1 Gi1,2.5 nM
same,EC50,hCB1; hCB1 GoB,18.4 nM
same,EC50,hCB1; hCB1 Gz,17.5 nM
same,Emax,"hCB1; read-out: Emax [95% CI], hCB1 Gi1",92%
same,Emax,"hCB1; read-out: Emax [95% CI], hCB1 GoB",100%
same,Emax,"hCB1; read-out: Emax [95% CI], hCB1 Gz",121%
same,"% 1H-CP-55,940 displacement (mean) from single point screen",CB1 (rCB1),97.23%
same,BRET2 + GoA pEC50,hCB2,6.2 [5.6 – 6.9]
same,EC50,hCB2,594 nM
same,Emax,hCB2; HEK-293T,31%
same,"functional response, concentration-response point (FigS7e, normalized)",hCB2; M = -4.52,18.671 and 20.9182 and 18.0789 and 16.7004
same,"functional response, concentration-response point (FigS7e, normalized)",hCB2; M = -5,15.3625 and 13.9237 and 14.7132 and 15.4107 and 19.4252 and 16.9876 and 18.2783 and 12.2533 and 11.9429 and 13.7725 and 13.3839 and 13.0025
same,"functional response, concentration-response point (FigS7e, normalized)",hCB2; M = -5.52,9.963 and 10.999 and 10.5318 and 12.5419 and 11.8092 and 12.1824 and 9.605 and 7.598 and 8.713 and 9.44 and 10.8654 and 8.808
same,"functional response, concentration-response point (FigS7e, normalized)",hCB2; M = -6,5.593 and 3.808 and 3.775 and 3.462 and 6.67 and 5.511 and 6.374 and 4.542 and 6.846 and 4.398 and 2.755 and 4.192
same,"functional response, concentration-response point (FigS7e, normalized)",hCB2; M = -6.52,2.409 and 1.324 and 2.492 and 1.478 and 2.2654 and 2.677 and 2.607 and 2.647 and 2.733 and 1.4886 and 1.807 and 1.367
same,"functional response, concentration-response point (FigS7e, normalized)",hCB2; M = -7,1.643 and 1.038 and 0.587 and 0.6659 and 0.7726 and 0.2984 and 0.761 and 0.6332 and 1.544 and 0.7947 and 0.4011 and 0.3139
same,"functional response, concentration-response point (FigS7e, normalized)",hCB2; M = -7.52,0.7104 and 0.5146 and 0.05736 and 0.5245 and 1.192 and 0.7027 and 0.8893 and 0.666 and 0.5954 and 0.6963 and -0.03292 and 0.3929
same,"functional response, concentration-response point (FigS7e, normalized)",hCB2; M = -8,0.3645 and 0.5311 and 0.5376 and 0.156 and -0.2264 and 0.2284 and 0.4344 and -0.3685 and 0.1487 and 0.4213 and 0.2144 and 0.1495
same,"functional response, concentration-response point (FigS7e, normalized)",hCB2; M = -8.52,0.07184 and -0.1728 and 0.5013 and 0.625 and -0.3869 and 0.7675 and 0.7171 and -0.3804 and 0.4049 and 0.07444 and 0.02209 and 0.4671
